Several values for one entry are separate records, joined by “and”; a condition that tells them apart may be missing. Equal entries are not always repeated. Where two headings read alike, the source gives them in different places.
Key:
[1] = molecular target: human monoclonal nicotine-specific antibody IgG2-J042 (HCVR SEQ ID NO:28, LCVR SEQ ID NO:37)
Method: (§1) Affinity of antibodies for (S)-(-)-nicotine was determined by equilibrium dialysis using a DispoEquilibriumDialyzer (Harvard Biosciences). Two chambers of the dialyzer were separated by a membrane (10'000 Da cut-off). […] Concentrations of tritium-labeled (S)-(-)-nicotine (Amersham) ranging from 3 to 444 nM were used. Equilibrium dialysis was allowed to proceed for 48-72 h. Aliquots from both sides of the chamber were taken and radioactivity measured in a scintillation counter. Radioactivity corresponding to antibody-bound (S)-(-)-nicotine was calculated by subtracting the radioactivity measured for the chamber containing no antibody from the one containing the antibody. The free (S)-(-)-nicotine concentration was determined from the radioactivity measured for the chamber containing no antibody. The equilibrium dissociation constant (Kd) was derived from the fit of a one-site binding model to the measured bound radioactivity as a function of the free (S)-(-)-nicotine concentration. […]
(§2) We next determined the affinities of mAbs IgG2-F018, -F063, -J004, -J042 and-N049 for the (R)-(+)-isomer of nicotine. This stereoisomer is present in the tobacco plant. In addition, it can be formed by the combustion process during smoking and has qualitatively similar activities on the central nervous system as (S)-(-)-nicotine (Hukkanen J. et al., 2005, Pharmacol. Rev. 57, 79-115). Thus, the binding of a fixed concentration of tritium-labeled (S)-(-)-nicotine (F018: 56 nM; F063, J004, J042, N049: 111 nM) to each of the antibodies was measured by equilibrium dialysis in the presence of increasing concentrations of unlabeled (R)-(+)-nicotine (1 nM to 100 µM). The equilibrium dissociation constant (Kd) was derived from the fit of a one-site competition model to the measured bound radioactivity as a function of the (R)-(+)-nicotine concentration. […] Table 5. Dissociation constants Kd (nM) of antibody-(R)-(+)-nicotine interactions measured by equilibrium dialysis.

[2] = molecular target: human monoclonal nicotine-specific antibody IgG2-J004 (HCVR SEQ ID NO:33, LCVR SEQ ID NO:35)
Method: as §1, §2

[3] = molecular target: human monoclonal nicotine-specific antibody IgG2-N049 (HCVR SEQ ID NO:39, LCVR SEQ ID NO:41)
Method: as §1, §2

[4] = molecular target: human monoclonal nicotine-specific antibody IgG2-F063 (HCVR SEQ ID NO:28, LCVR SEQ ID NO:31)
Method: as §1, §2

[5] = molecular target: human monoclonal nicotine-specific antibody IgG2-F018 (HCVR SEQ ID NO:24, LCVR SEQ ID NO:26); assay: Equilibrium dialysis, affinity and competition; type: binding; settings: for Cross-reactivity: competition with tritium-labeled (S)-(-)-nicotine for binding to IgG2-F018: 56 nM tritium-labeled (S)-(-)-nicotine, IgG2-F018 50 nM, unlabeled compound 1 nM to 100 µM, acetylcholine even at a 4000 fold molar excess
Method: Figure 1. Specificity of IgG2-F018. The binding of tritium-labeled (-)-nicotine (56 nM) to IgG2-F018 (50 nM) was measured by equilibrium dialysis in the presence of increasing concentrations of unlabeled (-)-nicotine, (-)-cotinine or acetylcholine. Averages of two independent experiments are given with standard deviation.
as §1
Cross-reactivity of mAb IgG2-F018 to (-)-cotinine and acetylcholine was determined by co-incubation of 10 fold serial dilutions of these compounds (1 nM to 100 µM) with 56 nM tritium-labeled (S)-(-)-nicotine in the equilibrium dialysis chambers as described above (Figure 1).
as §2

[6] = molecular target: human monoclonal nicotine-specific antibody I022, scFv-Fc fusion (scFv SEQ ID NO:70; HCVR SEQ ID NO:43, LCVR SEQ ID NO:45); settings: read-out: Dissociation constant Kd, (S)-(-)-nicotine; scFv-Fc 5.4 µg/ml in PBS/2% BSA; tritium-labeled (S)-(-)-nicotine 3 to 444 nM; 48-72 h; mean ± SD of at least 2 independent experiments
Method: as §1

[7] = molecular target: human monoclonal nicotine-specific antibody F063, scFv-Fc fusion (scFv SEQ ID NO:62; HCVR SEQ ID NO:28, LCVR SEQ ID NO:31); settings: read-out: Dissociation constant Kd, (S)-(-)-nicotine; scFv-Fc 5.4 µg/ml in PBS/2% BSA; tritium-labeled (S)-(-)-nicotine 3 to 444 nM; 48-72 h; mean ± SD of at least 2 independent experiments
Method: as §1

[8] = molecular target: human monoclonal nicotine-specific antibody IgG2-N038 (HCVR SEQ ID NO:47, LCVR SEQ ID NO:49); settings: read-out: Dissociation constant Kd, (S)-(-)-nicotine; IgG2 7.5 µg/ml in PBS/2% BSA; tritium-labeled (S)-(-)-nicotine 3 to 444 nM; 48-72 h; measured only once
Method: as §1

[9] = molecular target: human monoclonal nicotine-specific antibody F018, scFv-Fc fusion (scFv SEQ ID NO:60; HCVR SEQ ID NO:24, LCVR SEQ ID NO:26); settings: read-out: Dissociation constant Kd, (S)-(-)-nicotine; scFv-Fc 5.4 µg/ml in PBS/2% BSA; tritium-labeled (S)-(-)-nicotine 3 to 444 nM; 48-72 h; mean ± SD of at least 2 independent experiments
Method: as §1

[10] = molecular target: human monoclonal nicotine-specific antibody J004, scFv-Fc fusion (scFv SEQ ID NO:64; HCVR SEQ ID NO:33, LCVR SEQ ID NO:35); settings: read-out: Dissociation constant Kd, (S)-(-)-nicotine; scFv-Fc 5.4 µg/ml in PBS/2% BSA; tritium-labeled (S)-(-)-nicotine 3 to 444 nM; 48-72 h; mean ± SD of at least 2 independent experiments
Method: as §1

[11] = molecular target: human monoclonal nicotine-specific antibody N049, scFv-Fc fusion (scFv SEQ ID NO:68; HCVR SEQ ID NO:39, LCVR SEQ ID NO:41); settings: read-out: Dissociation constant Kd, (S)-(-)-nicotine; scFv-Fc 5.4 µg/ml in PBS/2% BSA; tritium-labeled (S)-(-)-nicotine 3 to 444 nM; 48-72 h; mean ± SD of at least 2 independent experiments
Method: as §1

[12] = molecular target: human monoclonal nicotine-specific antibody IgG2-I022 (HCVR SEQ ID NO:43, LCVR SEQ ID NO:45); settings: read-out: Dissociation constant Kd, (S)-(-)-nicotine; IgG2 7.5 µg/ml in PBS/2% BSA; tritium-labeled (S)-(-)-nicotine 3 to 444 nM; 48-72 h; mean ± SD of at least 2 independent experiments
Method: as §1

[13] = molecular target: human monoclonal nicotine-specific antibody J042, scFv-Fc fusion (scFv SEQ ID NO:66; HCVR SEQ ID NO:28, LCVR SEQ ID NO:37); settings: read-out: Dissociation constant Kd, (S)-(-)-nicotine; scFv-Fc 5.4 µg/ml in PBS/2% BSA; tritium-labeled (S)-(-)-nicotine 3 to 444 nM; 48-72 h; mean ± SD of at least 2 independent experiments
Method: as §1

[14] = molecular target: human monoclonal nicotine-specific antibody N038, scFv-Fc fusion (scFv SEQ ID NO:72; HCVR SEQ ID NO:47, LCVR SEQ ID NO:49); settings: read-out: Dissociation constant Kd, (S)-(-)-nicotine; scFv-Fc 5.4 µg/ml in PBS/2% BSA; tritium-labeled (S)-(-)-nicotine 3 to 444 nM; 48-72 h; mean ± SD of at least 2 independent experiments
Method: as §1

[15] = molecular target: polyclonal antibodies against (S)-(-)-nicotine; settings: read-out: affinity of polyclonal antibodies against (S)-(-)-nicotine; Maurer P. et al., 2005; cited from earlier work
[16] = read-out: Dissociation constant Kd of antibody-(R)-(+)-nicotine interaction, competition with 111 nM tritium-labeled (S)-(-)-nicotine, unlabeled (R)-(+)-nicotine 1 nM to 100 µM, one-site competition model
[17] = read-out: Dissociation constant Kd, (S)-(-)-nicotine, IgG2 7.5 µg/ml in PBS/2% BSA, tritium-labeled (S)-(-)-nicotine 3 to 444 nM, 48-72 h, mean ± SD of at least 2 independent experiments

Which results are given for `CN1CCC[C@@H]1c1cccnc1` [(R)-(+)-nicotine]?
Kd [1, 16]: 7.7 nM; Kd [2, 16]: 12.6 nM; Kd [3, 16]: 10.5 nM; Kd [4, 16]: 6.6 nM; Kd ([5]; competition with 56 nM tritium-labeled (S)-(-)-nicotine, unlabeled (R)-(+)-nicotine 1 nM to 100 µM, one-site competition model, read-out: Dissociation constant Kd of antibody-(R)-(+)-nicotine interaction): 3.1 nM

With `CN1CCC[C@H]1c1cccnc1` [(S)-(-)-nicotine] as the molecule, how does the Kd [6] read?
Its Kd is 42.5 ± 17 nM.

What about the Kd [7] of the same molecule?
The Kd was 70.5 ± 14 nM.

And the Kd [8]?
The Kd was 744 nM.

And the Kd [9]?
Its Kd is 11.5 ± 1.5 nM.

What about the Kd [10] of the same molecule?
The Kd was 33.3 ± 2 nM.

What about the Kd [11] of the same molecule?
Its Kd is 72.7 ± 5.6 nM.

And the Kd [12]?
The Kd was 89.9 ± 9.8 nM.

And the Kd [13]?
The Kd was 47 ± 3.1 nM.

And the Kd [14]?
The Kd was 686 ± 58 nM.

What about the Kd [1, 17] of the same molecule?
The Kd was 30.2 ± 11 nM.

What about the Kd [2, 17] of the same molecule?
The Kd was 64.5 ± 2.2 nM.

What about the Kd [3, 17] of the same molecule?
Its Kd is 35.6 ± 3.5 nM.

And the Kd [4, 17]?
Its Kd is 31.4 ± 13 nM.

What about the Kd [15] of the same molecule?
Its Kd is 30 to 70 nM.

And the “Cross-reactivity: competition with tritium-labeled (S)-(-)-nicotine for binding to IgG2-F018” value [5]?
The value was “readily displaced”.

What about the Kd ([5]; IgG2 7.5 µg/ml in PBS/2% BSA, tritium-labeled (S)-(-)-nicotine 3 to 444 nM, 48-72 h, mean ± SD of at least 2 independent experiments, read-out: Dissociation constant Kd, (S)-(-)-nicotine) of the same molecule?
Its Kd is 7 nM and 7.4 nM.

For `CN1C(=O)CC[C@H]1c1cccnc1` [(-)-cotinine], which “Cross-reactivity: competition with tritium-labeled (S)-(-)-nicotine for binding to IgG2-F018” value [5] is on record?
The value was “did not effectively compete”.

What about the “Binding strength relative to (S)-(-)-nicotine (fold less strongly), estimated from the IC50 observed” value ([5]; equilibrium dialysis competition with 56 nM tritium-labeled (S)-(-)-nicotine) of the same molecule?
Its value is “about 1000 fold”.

Source: EP2222702B1, “HUMAN […] SPECIFIC ANTIBODIES” (Cytos Biotechnology AG, priority 2007, dated 2009)
